Among the data in patent US8815882B2, “Pyrazole aminopyrimidine derivatives as LRRK2 modulators” (Genentech, Inc., priority 2010, dated 2014) are Ki values, retold here.

The target of the first experiment is T1, LRRK2 (Homo sapiens, UniProt Q5S007, G2019S).
T1 construct: purchased Invitrogen PV4882 (lot 567054A)
T1 sequence (Q5S007 whole entry G2019S): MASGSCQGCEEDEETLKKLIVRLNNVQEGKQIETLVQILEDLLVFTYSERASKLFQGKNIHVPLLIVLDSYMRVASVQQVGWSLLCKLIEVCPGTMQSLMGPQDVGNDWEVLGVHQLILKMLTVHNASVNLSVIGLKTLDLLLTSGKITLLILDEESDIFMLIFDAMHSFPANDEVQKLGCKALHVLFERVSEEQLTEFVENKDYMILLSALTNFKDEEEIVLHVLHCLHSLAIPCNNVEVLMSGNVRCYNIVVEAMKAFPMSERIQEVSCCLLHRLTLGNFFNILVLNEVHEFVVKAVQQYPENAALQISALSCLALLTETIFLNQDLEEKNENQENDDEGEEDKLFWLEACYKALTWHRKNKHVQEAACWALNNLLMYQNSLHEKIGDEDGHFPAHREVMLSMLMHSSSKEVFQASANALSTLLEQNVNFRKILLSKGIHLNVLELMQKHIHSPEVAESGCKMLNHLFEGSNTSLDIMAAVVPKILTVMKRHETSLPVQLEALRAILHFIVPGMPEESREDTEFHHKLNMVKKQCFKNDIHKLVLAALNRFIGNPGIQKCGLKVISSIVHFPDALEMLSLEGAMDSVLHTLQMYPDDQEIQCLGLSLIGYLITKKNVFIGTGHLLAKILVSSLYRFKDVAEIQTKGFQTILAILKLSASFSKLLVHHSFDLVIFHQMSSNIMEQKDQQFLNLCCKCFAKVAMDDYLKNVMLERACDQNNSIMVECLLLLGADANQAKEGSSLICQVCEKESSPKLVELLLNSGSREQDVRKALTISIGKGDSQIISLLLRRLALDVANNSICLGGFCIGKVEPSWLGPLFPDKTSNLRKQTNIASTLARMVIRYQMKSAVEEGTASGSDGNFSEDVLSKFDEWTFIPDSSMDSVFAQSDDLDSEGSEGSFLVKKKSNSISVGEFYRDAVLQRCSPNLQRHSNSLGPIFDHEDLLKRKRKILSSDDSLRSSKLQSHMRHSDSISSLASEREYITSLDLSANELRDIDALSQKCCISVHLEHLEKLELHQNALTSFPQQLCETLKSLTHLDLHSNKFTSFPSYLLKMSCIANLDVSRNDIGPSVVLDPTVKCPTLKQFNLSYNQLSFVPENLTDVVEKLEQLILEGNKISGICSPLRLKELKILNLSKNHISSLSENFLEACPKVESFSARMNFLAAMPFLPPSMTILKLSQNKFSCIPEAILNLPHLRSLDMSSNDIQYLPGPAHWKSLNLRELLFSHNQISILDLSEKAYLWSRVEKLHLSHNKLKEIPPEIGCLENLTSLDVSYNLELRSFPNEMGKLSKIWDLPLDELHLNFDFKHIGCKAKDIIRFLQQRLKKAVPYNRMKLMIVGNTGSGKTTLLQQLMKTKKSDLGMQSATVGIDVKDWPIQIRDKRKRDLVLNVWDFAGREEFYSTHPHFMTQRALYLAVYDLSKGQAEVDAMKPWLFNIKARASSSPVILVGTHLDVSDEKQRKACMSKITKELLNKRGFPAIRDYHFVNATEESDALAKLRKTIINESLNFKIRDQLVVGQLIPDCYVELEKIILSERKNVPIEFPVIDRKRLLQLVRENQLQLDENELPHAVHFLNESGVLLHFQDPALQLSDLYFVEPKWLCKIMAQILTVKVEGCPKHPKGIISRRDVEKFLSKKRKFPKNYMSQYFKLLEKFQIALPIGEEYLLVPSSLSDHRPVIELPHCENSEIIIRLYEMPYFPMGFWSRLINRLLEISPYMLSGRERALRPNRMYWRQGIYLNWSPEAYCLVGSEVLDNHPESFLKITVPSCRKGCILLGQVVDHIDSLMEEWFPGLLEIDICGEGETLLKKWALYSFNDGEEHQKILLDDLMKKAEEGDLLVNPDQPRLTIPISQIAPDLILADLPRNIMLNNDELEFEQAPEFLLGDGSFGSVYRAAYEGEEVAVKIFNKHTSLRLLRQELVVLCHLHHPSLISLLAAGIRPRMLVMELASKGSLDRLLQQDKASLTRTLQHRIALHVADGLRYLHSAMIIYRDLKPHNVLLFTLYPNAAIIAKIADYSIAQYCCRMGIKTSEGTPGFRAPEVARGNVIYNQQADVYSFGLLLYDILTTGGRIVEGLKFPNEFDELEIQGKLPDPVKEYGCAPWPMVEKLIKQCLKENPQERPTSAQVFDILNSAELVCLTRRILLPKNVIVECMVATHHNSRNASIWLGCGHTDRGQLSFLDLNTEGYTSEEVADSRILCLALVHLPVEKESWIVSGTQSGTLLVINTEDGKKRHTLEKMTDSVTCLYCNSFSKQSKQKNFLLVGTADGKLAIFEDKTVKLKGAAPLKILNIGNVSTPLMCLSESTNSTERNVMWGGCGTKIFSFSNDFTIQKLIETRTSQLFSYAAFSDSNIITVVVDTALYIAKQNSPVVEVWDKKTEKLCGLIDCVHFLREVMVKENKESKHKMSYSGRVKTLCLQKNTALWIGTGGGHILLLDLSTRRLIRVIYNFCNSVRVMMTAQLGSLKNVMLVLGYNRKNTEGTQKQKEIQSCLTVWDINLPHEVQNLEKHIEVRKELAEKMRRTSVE
The experiment in a line: In Vitro LRRK2 Assay (LabChip 3000, fluorescently-labeled peptide substrate, ATP). The note with it: read-out: LRRK2 Ki (KI), Table 7. Type of experiment: biochemical. The gist of the method:
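Read-out was LabChip capillary electrophoresis, resolving phospho- from non-phospho-peptide by fluorescence intensity. The kinase reaction combined enzyme, ATP, test compound and labeled peptide (4 μM working dilution) for 2 h in darkness before stop solution. Values were reported as Ki, from a tight-binding model with Et, S and Km, or as IC50 or percent inhibition.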
Consider `Cc1c(Nc2ncc(Cl)c(OC3CCOCC3)n2)cnn1C` [Example 9, 5-Chloro-N-(1,5-dimethyl-1H-pyrazol-4-yl)-4-(tetrahydro-2H-pyran-4-yloxy)pyrimidin-2-amine], for which the Ki (in general, a measure of affinity in units of concentration, obtained from inhibition or displacement) turned out to be 39 nM.

The same experiment, now with this note: read-out: LRRK2 Ki (KI), Table 8.
Regarding `CCNc1nc(Nc2cn(-c3ccc(S(=O)(=O)C4CC4)cc3)nc2C)ncc1C(F)(F)F` [Example 264, N2-[1-(4-Cyclopropane-sulfonyl-phenyl)-3-methyl-1H-pyrazol-4-yl]-N4-ethyl-5-trifluoromethyl-pyrimidine-2,4-diamine], the Ki stood at 3.2 nM.

Consider `CNc1nc(Nc2cn(C3CCC(OC)C3)nc2C)ncc1C(F)(F)F` (centres unmarked) [Example 193, N2-(1-(3-methoxycyclo-pentyl)-3-methyl-1H-pyrazol-4-yl)-N4-methyl-5-(trifluoromethyl) pyrimidine-2,4-diamine], for which the Ki worked out at 19 nM.

Turning to `CCNc1nc(Nc2cn(CC(C)(C)O)nc2C(C)C)ncc1C(F)(F)F` [Example 221, 1-(4-(4-(ethylamino)-5-(trifluoromethyl)pyrimidin-2-ylamino)-3-isopropyl-1H-pyrazol-l-yl)-2-methylpropan-2-ol], the Ki was 6.1 nM.

For the molecule `CNc1nc(Nc2cn(CC(F)(F)F)nc2C)ncc1Br` [Example 95, 5-bromo-N4-methyl-N2-(3-methyl-1-(2,2,2-trifluoroethyl)-1H-pyrazol-4-yl)pyrimidine-2,4-diamine], the Ki amounted to 1.2 nM.

In the case of `CCNc1nc(Nc2cnn(C)c2C)ncc1C(F)(F)F` [Example 261, N2-(1,5-Dimethyl-1H-pyrazol-4-yl)-N4-ethyl-5-trifluoromethyl-pyrimidine-2,4-diamine], the Ki is 1.3 nM.

In the case of `CCNc1nc(Nc2cnn(CC(C)(C)O)c2C)ncc1C(F)(F)F` [Example 296, 1-[4-(4-Ethylamino-5-trifluoromethyl-pyrimidin-2-ylamino)-5-methyl-pyrazol-1-yl]-2-methyl-propan-2-ol], the Ki is 2.3 nM.

Turning to `CNc1nc(Nc2cnn(Cc3ccncn3)c2C)ncc1C(F)(F)F` [Example 323, N4-Methyl-N2-(5-methyl-1-pyrimidin-4-ylmethyl-1H-pyrazol-4-yl)-5-trifluoromethyl-pyrimidine-2,4-diamine], the Ki is 2.2 nM.
